Assay results taken from PubChem BioAssay (NCI).
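Assay format: 96-well plates, 48-hour exposure. GI50 marks 50% less growth. At the TGI there is no net growth.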

Tests used:
Test in all cases: DTP human tumour cell line panel, 48 h; in the data active means GI50 below about 0.43 µM; inactive means the rest
A549 NSCLC = tested on: A549 NSCLC
SK-MEL-5 melanoma = tested on: SK-MEL-5 melanoma
K-562 leukemia = tested on: K-562 leukemia
HS 578T breast = tested on: HS 578T breast
IGROV1 ovarian = tested on: IGROV1 ovarian
NCI-H226 lung = tested on: NCI-H226 lung
HL-60(TB) leukemia = tested on: HL-60(TB) leukemia
U251 CNS = tested on: U251 CNS
CCRF-CEM leukemia = tested on: CCRF-CEM leukemia
HCT-116 colon = tested on: HCT-116 colon
TK-10 renal = tested on: TK-10 renal
A498 renal = tested on: A498 renal
HCC-2998 colon = tested on: HCC-2998 colon
DU-145 prostate = tested on: DU-145 prostate
BT-549 breast = tested on: BT-549 breast
T-47D breast = tested on: T-47D breast
PC-3 prostate = tested on: PC-3 prostate
NCI-H522 lung = tested on: NCI-H522 lung
MCF7 breast = tested on: MCF7 breast
SR leukemia = tested on: SR leukemia
MDA-MB-435 = tested on: MDA-MB-435
COLO 205 colon = tested on: COLO 205 colon
HOP-62 NSCLC = tested on: HOP-62 NSCLC
M14 melanoma = tested on: M14 melanoma
OVCAR-3 ovarian = tested on: OVCAR-3 ovarian
MALME-3M melanoma = tested on: MALME-3M melanoma
SK-OV-3 ovarian = tested on: SK-OV-3 ovarian
RXF 393 renal = tested on: RXF 393 renal
HT29 colon = tested on: HT29 colon
EKVX NSCLC = tested on: EKVX NSCLC
UACC-62 melanoma = tested on: UACC-62 melanoma
OVCAR-8 ovarian = tested on: OVCAR-8 ovarian
SF-295 CNS = tested on: SF-295 CNS
786-0 renal = tested on: 786-0 renal
SK-MEL-2 melanoma = tested on: SK-MEL-2 melanoma
OVCAR-5 ovarian = tested on: OVCAR-5 ovarian
NCI/ADR-RES ovarian = tested on: NCI/ADR-RES ovarian
OVCAR-4 ovarian = tested on: OVCAR-4 ovarian
UACC-257 melanoma = tested on: UACC-257 melanoma
SF-539 CNS = tested on: SF-539 CNS
SN12C renal = tested on: SN12C renal
NCI-H23 lung = tested on: NCI-H23 lung
MOLT-4 leukemia = tested on: MOLT-4 leukemia
HCT-15 colon = tested on: HCT-15 colon
NCI-H460 lung = tested on: NCI-H460 lung
SF-268 CNS = tested on: SF-268 CNS
CAKI-1 renal = tested on: CAKI-1 renal
MDA-MB-231 breast = tested on: MDA-MB-231 breast
SNB-75 CNS = tested on: SNB-75 CNS
SW-620 colon = tested on: SW-620 colon
SNB-19 CNS = tested on: SNB-19 CNS
ACHN renal = tested on: ACHN renal
HOP-92 NSCLC = tested on: HOP-92 NSCLC
SK-MEL-28 melanoma = tested on: SK-MEL-28 melanoma
LOX IMVI melanoma = tested on: LOX IMVI melanoma
KM12 colon = tested on: KM12 colon
RPMI-8226 leukemia = tested on: RPMI-8226 leukemia
UO-31 renal = tested on: UO-31 renal

Cc1ccc(-c2n[nH]c(=O)n2N2C(=O)C=CC2=O)cc1
> 100 µM: TGI (A549 NSCLC) | TGI (SK-MEL-5 melanoma) | TGI (K-562 leukemia) | TGI (HS 578T breast) | TGI (IGROV1 ovarian) | TGI (NCI-H226 lung) | TGI (HL-60(TB) leukemia) | TGI (U251 CNS) | TGI (CCRF-CEM leukemia) | TGI (HCT-116 colon) | TGI (TK-10 renal) | TGI (A498 renal) | TGI (HCC-2998 colon) | TGI (DU-145 prostate) | TGI (BT-549 breast) | TGI (T-47D breast) | TGI (PC-3 prostate) | TGI (NCI-H522 lung) | TGI (MCF7 breast) | TGI (SR leukemia) | TGI (MDA-MB-435) | TGI (COLO 205 colon) | TGI (HOP-62 NSCLC) | TGI (M14 melanoma) | TGI (OVCAR-3 ovarian) | TGI (MALME-3M melanoma) | TGI (SK-OV-3 ovarian) | TGI (RXF 393 renal) | TGI (HT29 colon) | TGI (EKVX NSCLC) | TGI (UACC-62 melanoma) | TGI (OVCAR-8 ovarian) | TGI (SF-295 CNS) | TGI (786-0 renal) | TGI (SK-MEL-2 melanoma) | TGI (OVCAR-5 ovarian) | TGI (NCI/ADR-RES ovarian) | TGI (OVCAR-4 ovarian) | TGI (UACC-257 melanoma) | TGI (SF-539 CNS) | TGI (SN12C renal) | TGI (NCI-H23 lung) | TGI (MOLT-4 leukemia) | TGI (HCT-15 colon) | TGI (NCI-H460 lung) | TGI (SF-268 CNS) | TGI (CAKI-1 renal) | TGI (MDA-MB-231 breast)

O=C(Nc1cccc(-n2cc(-c3ccncc3)c(-c3ccc(O)c(Cl)c3)n2)c1)c1ccc(N2CCOCC2)c(C(F)(F)F)c1
active: GI50 (RXF 393 renal) 0.283 µM
3.09 µM: TGI (MDA-MB-231 breast)
3.15 µM: TGI (HL-60(TB) leukemia)
4.24 µM: TGI (RPMI-8226 leukemia)
inactive: GI50 (A549 NSCLC) 2 µM | GI50 (SK-MEL-5 melanoma) 1.75 µM | GI50 (K-562 leukemia) 1.45 µM | GI50 (HS 578T breast) 0.548 µM | GI50 (IGROV1 ovarian) > 50 µM | GI50 (NCI-H226 lung) > 50 µM | GI50 (HL-60(TB) leukemia) 1.2 µM | GI50 (U251 CNS) 0.917 µM | GI50 (CCRF-CEM leukemia) 1.34 µM | GI50 (HCT-116 colon) 2.35 µM | GI50 (SNB-75 CNS) 0.745 µM | GI50 (TK-10 renal) > 50 µM | GI50 (A498 renal) > 50 µM | GI50 (HCC-2998 colon) 3.44 µM | GI50 (DU-145 prostate) > 50 µM | GI50 (BT-549 breast) 2.35 µM | GI50 (T-47D breast) 2.99 µM | GI50 (SW-620 colon) 4.05 µM | GI50 (SNB-19 CNS) > 50 µM | GI50 (PC-3 prostate) 2.39 µM | GI50 (NCI-H522 lung) 2.22 µM | GI50 (MCF7 breast) 2.03 µM | GI50 (ACHN renal) 2.18 µM | GI50 (SR leukemia) 1.05 µM | GI50 (MDA-MB-435) 5 µM | GI50 (COLO 205 colon) 4.62 µM | GI50 (HOP-62 NSCLC) 3.07 µM | GI50 (M14 melanoma) 2.75 µM | GI50 (MALME-3M melanoma) 2.8 µM | GI50 (SK-OV-3 ovarian) > 50 µM | GI50 (HOP-92 NSCLC) 0.994 µM | GI50 (HT29 colon) 2.36 µM | GI50 (UACC-62 melanoma) > 50 µM | GI50 (OVCAR-8 ovarian) 2.24 µM | GI50 (SF-295 CNS) 1.24 µM | GI50 (786-0 renal) 0.982 µM | GI50 (SK-MEL-28 melanoma) 3.75 µM | GI50 (SK-MEL-2 melanoma) 34 µM | GI50 (OVCAR-5 ovarian) > 50 µM | GI50 (NCI/ADR-RES ovarian) 4.24 µM | GI50 (OVCAR-4 ovarian) > 50 µM | GI50 (LOX IMVI melanoma) 1.61 µM | GI50 (UACC-257 melanoma) > 50 µM | GI50 (SF-539 CNS) 1.04 µM | GI50 (SN12C renal) > 50 µM | GI50 (NCI-H23 lung) 3.95 µM | GI50 (MOLT-4 leukemia) 2.33 µM | GI50 (HCT-15 colon) 1.21 µM | GI50 (KM12 colon) 1.12 µM | GI50 (RPMI-8226 leukemia) 1.04 µM | GI50 (NCI-H460 lung) 1.82 µM | GI50 (UO-31 renal) 2.99 µM | GI50 (SF-268 CNS) > 50 µM | GI50 (CAKI-1 renal) 2.24 µM | GI50 (MDA-MB-231 breast) 0.857 µM
2.25 µM: TGI (RXF 393 renal)
> 50 µM: TGI (A549 NSCLC) | TGI (SK-MEL-5 melanoma) | TGI (K-562 leukemia) | TGI (HS 578T breast) | TGI (IGROV1 ovarian) | TGI (NCI-H226 lung) | TGI (U251 CNS) | TGI (CCRF-CEM leukemia) | TGI (HCT-116 colon) | TGI (SNB-75 CNS) | TGI (TK-10 renal) | TGI (A498 renal) | TGI (HCC-2998 colon) | TGI (DU-145 prostate) | TGI (BT-549 breast) | TGI (T-47D breast) | TGI (SW-620 colon) | TGI (SNB-19 CNS) | TGI (PC-3 prostate) | TGI (NCI-H522 lung) | TGI (MCF7 breast) | TGI (ACHN renal) | TGI (SR leukemia) | TGI (MDA-MB-435) | TGI (COLO 205 colon) | TGI (HOP-62 NSCLC) | TGI (M14 melanoma) | TGI (MALME-3M melanoma) | TGI (SK-OV-3 ovarian) | TGI (HT29 colon) | TGI (UACC-62 melanoma) | TGI (OVCAR-8 ovarian) | TGI (786-0 renal) | TGI (SK-MEL-28 melanoma) | TGI (SK-MEL-2 melanoma) | TGI (OVCAR-5 ovarian) | TGI (NCI/ADR-RES ovarian) | TGI (OVCAR-4 ovarian) | TGI (LOX IMVI melanoma) | TGI (UACC-257 melanoma) | TGI (SF-539 CNS) | TGI (SN12C renal) | TGI (NCI-H23 lung) | TGI (MOLT-4 leukemia) | TGI (HCT-15 colon) | TGI (KM12 colon) | TGI (NCI-H460 lung) | TGI (UO-31 renal) | TGI (SF-268 CNS) | TGI (CAKI-1 renal)
3.81 µM: TGI (HOP-92 NSCLC)
4.32 µM: TGI (SF-295 CNS)
